Test results taken from US20230085307A1, “PYRIDAZINONE COMPOUND AND HERBICIDE” (NISSAN CHEMICAL CORPORATION, priority 2019, published 2023).

The compounds below were run on Japanese bulrush (assay: Test Example 1: herbicidal activity, application before weed generation under submerged conditions (Table 16, symbol B)). Details: 320 g/ha applied herbicide.
Format: in vivo, Japanese bulrush (Schoenoplectus juncoides)
Outline: (§1)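 Alluvial soil was flooded to 4 cm depth, weed seeds were sown mixed and 2.5-leaf rice seedlings were transplanted. On sowing day, the compound's emulsion, diluted in water to a set dose, was applied to the water surface. Plants grew at 25–30 °C and were scored 0–5 after three weeks.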

| Structure (SMILES) | Herbicidal effect on B: Japanese bulrush (grade 0-5) |
| --- | --- |
| CC(=O)c1ccc(-c2sc3ccccc3c2-c2c(O)c(C)nn(C)c2=O)cc1 [1-041] | 4 (Herbicidal rate of 70% or more and less than 90%) |
| CCCC(=O)Oc1c(C)nn(C)c(=O)c1-c1c(-c2ccc(C(C)=NOC)cc2)sc2ccccc12 [1-044] | 5 (Herbicidal rate of 90% or more (almost completely withered)) |
| Cc1cc(-c2sc3ccccc3c2-c2c(O)c(C)nn(C)c2=O)ccc1F [1-051] | 0 (Herbicidal rate of 5% or less (almost no effect)) |

The compounds below were run on oval-leafed pondweed (assay: Test Example 1: herbicidal activity, application before weed generation under submerged conditions (Table 16, symbol C)). Details: 320 g/ha applied herbicide.
Format: in vivo, oval-leafed pondweed (Monochoria vaginalis)
Outline: as §1

| Structure (SMILES) | Herbicidal effect on C: oval-leafed pondweed (grade 0-5) |
| --- | --- |
| CC(=O)c1ccc(-c2sc3ccccc3c2-c2c(O)c(C)nn(C)c2=O)cc1 [1-041] | 4 (Herbicidal rate of 70% or more and less than 90%) |
| CCCC(=O)Oc1c(C)nn(C)c(=O)c1-c1c(-c2ccc(C(C)=NOC)cc2)sc2ccccc12 [1-044] | 5 (Herbicidal rate of 90% or more (almost completely withered)) |
| Cc1cc(-c2sc3ccccc3c2-c2c(O)c(C)nn(C)c2=O)ccc1F [1-051] | 0 (Herbicidal rate of 5% or less (almost no effect)) |

The compounds below were run on Japanese bulrush (assay: Test Example 2: herbicidal activity, application during weed generation under submerged conditions (Table 17, symbol B)). Details: AAH 320 g/ha; application during weed generation, submerged conditions.
Format: in vivo, Japanese bulrush (Schoenoplectus juncoides)
Outline: (§2)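 Herbicide emulsion, diluted with water to the chosen amount, is applied onto 4 cm floodwater over alluvial soil where the weeds were co-sown and raised at 25–30° C. Application timing: 1–2 leaves. Assessment: three weeks afterwards.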

| Structure (SMILES) | herbicidal effect rating, B: Japanese bulrush |
| --- | --- |
| CC(=O)c1ccc(-c2sc3ccccc3c2-c2c(O)c(C)nn(C)c2=O)cc1 [1-041] | 3 (Herbicidal rate of 40% or more and less than 70%) |
| CCCC(=O)Oc1c(C)nn(C)c(=O)c1-c1c(-c2ccc(C(C)=NOC)cc2)sc2ccccc12 [1-044] | 3 (Herbicidal rate of 40% or more and less than 70%) |
| Cc1cc(-c2sc3ccccc3c2-c2c(O)c(C)nn(C)c2=O)ccc1F [1-051] | 0 (Herbicidal rate of 5% or less (almost no effect)) |

What follows are compounds tested on oval-leafed pondweed (assay: Test Example 2: herbicidal activity, application during weed generation under submerged conditions (Table 17, symbol C)). Details: AAH 320 g/ha; application during weed generation, submerged conditions.
Format: in vivo, oval-leafed pondweed (Monochoria vaginalis)
Outline: as §2

| Structure (SMILES) | herbicidal effect rating, C: oval-leafed pondweed |
| --- | --- |
| CC(=O)c1ccc(-c2sc3ccccc3c2-c2c(O)c(C)nn(C)c2=O)cc1 [1-041] | 3 (Herbicidal rate of 40% or more and less than 70%) |
| CCCC(=O)Oc1c(C)nn(C)c(=O)c1-c1c(-c2ccc(C(C)=NOC)cc2)sc2ccccc12 [1-044] | 1 (Herbicidal rate of 5% or more and less than 20%) |
| Cc1cc(-c2sc3ccccc3c2-c2c(O)c(C)nn(C)c2=O)ccc1F [1-051] | 0 (Herbicidal rate of 5% or less (almost no effect)) |

What follows are compounds tested on green foxtail (assay: Test Example 4: herbicidal effect by soil treatment (Table 19, symbol G)). Details: amount of applied herbicide 320 g/ha.
Format: in vivo, green foxtail (Setaria viridis)
Outline: (§3)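 Herbicidal effect was rated 3 weeks after treatment, using the scoring criteria of an earlier test. The compound, formulated as an emulsion and diluted in water to a set herbicide amount, had been sprayed uniformly on soil over freshly sown seeds. Growth took place in a greenhouse at 25° C. to 30° C.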

| Structure (SMILES) | herbicidal effect rating, G: green foxtail |
| --- | --- |
| CC(=O)c1ccc(-c2sc3ccccc3c2-c2c(O)c(C)nn(C)c2=O)cc1 [1-041] | 3 (Herbicidal rate of 40% or more and less than 70%) |
| CCCC(=O)Oc1c(C)nn(C)c(=O)c1-c1c(-c2ccc(C(C)=NOC)cc2)sc2ccccc12 [1-044] | 4 (Herbicidal rate of 70% or more and less than 90%) |
| Cc1cc(-c2sc3ccccc3c2-c2c(O)c(C)nn(C)c2=O)ccc1F [1-051] | 5 (Herbicidal rate of 90% or more (almost completely withered)) |

What follows are compounds tested on barnyard grass (assay: Test Example 4: herbicidal effect by soil treatment (Table 19, symbol H)). Details: amount of applied herbicide 320 g/ha.
Format: in vivo, barnyard grass (Echinochloa crus-galli)
Outline: as §3

| Structure (SMILES) | herbicidal effect rating, H: barnyard grass |
| --- | --- |
| CC(=O)c1ccc(-c2sc3ccccc3c2-c2c(O)c(C)nn(C)c2=O)cc1 [1-041] | 0 (Herbicidal rate of 5% or less (almost no effect)) |
| CCCC(=O)Oc1c(C)nn(C)c(=O)c1-c1c(-c2ccc(C(C)=NOC)cc2)sc2ccccc12 [1-044] | 0 (Herbicidal rate of 5% or less (almost no effect)) |
| Cc1cc(-c2sc3ccccc3c2-c2c(O)c(C)nn(C)c2=O)ccc1F [1-051] | 3 (Herbicidal rate of 40% or more and less than 70%) |

The compounds below were run on wild oat (assay: Test Example 4: herbicidal effect by soil treatment (Table 19, symbol I)). Details: amount of applied herbicide 320 g/ha.
Format: in vivo, wild oat (Avena fatua)
Outline: as §3

| Structure (SMILES) | herbicidal effect rating, I: wild oat |
| --- | --- |
| CC(=O)c1ccc(-c2sc3ccccc3c2-c2c(O)c(C)nn(C)c2=O)cc1 [1-041] | 1 (Herbicidal rate of 5% or more and less than 20%) |
| CCCC(=O)Oc1c(C)nn(C)c(=O)c1-c1c(-c2ccc(C(C)=NOC)cc2)sc2ccccc12 [1-044] | 0 (Herbicidal rate of 5% or less (almost no effect)) |
| Cc1cc(-c2sc3ccccc3c2-c2c(O)c(C)nn(C)c2=O)ccc1F [1-051] | 0 (Herbicidal rate of 5% or less (almost no effect)) |

Each compound was assayed on redroot pigweed (assay: Test Example 4: herbicidal effect by soil treatment (Table 19, symbol N)). Details: amount of applied herbicide 320 g/ha.
Format: in vivo, redroot pigweed (Amaranthus retroflexus)
Outline: as §3

| Structure (SMILES) | herbicidal effect rating, N: redroot pigweed |
| --- | --- |
| CC(=O)c1ccc(-c2sc3ccccc3c2-c2c(O)c(C)nn(C)c2=O)cc1 [1-041] | 4 (Herbicidal rate of 70% or more and less than 90%) |
| CCCC(=O)Oc1c(C)nn(C)c(=O)c1-c1c(-c2ccc(C(C)=NOC)cc2)sc2ccccc12 [1-044] | 4 (Herbicidal rate of 70% or more and less than 90%) |
| Cc1cc(-c2sc3ccccc3c2-c2c(O)c(C)nn(C)c2=O)ccc1F [1-051] | 4 (Herbicidal rate of 70% or more and less than 90%) |

What follows are compounds tested on chickweed (assay: Test Example 4: herbicidal effect by soil treatment (Table 19, symbol P)). Details: amount of applied herbicide 320 g/ha.
Format: in vivo, common chickweed (Stellaria media)
Outline: as §3

| Structure (SMILES) | herbicidal effect rating, P: chickweed |
| --- | --- |
| CC(=O)c1ccc(-c2sc3ccccc3c2-c2c(O)c(C)nn(C)c2=O)cc1 [1-041] | 0 (Herbicidal rate of 5% or less (almost no effect)) |
| CCCC(=O)Oc1c(C)nn(C)c(=O)c1-c1c(-c2ccc(C(C)=NOC)cc2)sc2ccccc12 [1-044] | 5 (Herbicidal rate of 90% or more (almost completely withered)) |
| Cc1cc(-c2sc3ccccc3c2-c2c(O)c(C)nn(C)c2=O)ccc1F [1-051] | 3 (Herbicidal rate of 40% or more and less than 70%) |

Each compound was assayed on southern crabgrass (assay: Test Example 5: herbicidal effect by foliage application, plastic box (Table 20, symbol F)). Details: foliage application, 320 g/ha, three weeks after application.
Format: in vivo, southern crabgrass (Digitaria ciliaris)
Outline: (§4)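 Foliar spray test: emulsion formulation diluted in water to a set application rate, sprayed onto 14-day-old plants raised in diluvial soil at 25° C to 30° C under glass. Both herbicidal effect and crop effect rated visually three weeks later.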

| Structure (SMILES) | herbicidal effect grade, F: southern crabgrass |
| --- | --- |
| CC(=O)c1ccc(-c2sc3ccccc3c2-c2c(O)c(C)nn(C)c2=O)cc1 [1-041] | 4 (Herbicidal rate of 70% or more and less than 90%) |
| CCCC(=O)Oc1c(C)nn(C)c(=O)c1-c1c(-c2ccc(C(C)=NOC)cc2)sc2ccccc12 [1-044] | 4 (Herbicidal rate of 70% or more and less than 90%) |
| Cc1cc(-c2sc3ccccc3c2-c2c(O)c(C)nn(C)c2=O)ccc1F [1-051] | 3 (Herbicidal rate of 40% or more and less than 70%) |

These compounds were tested on green foxtail (assay: Test Example 5: herbicidal effect by foliage application, plastic box (Table 20, symbol G)). Details: foliage application, 320 g/ha, three weeks after application.
Format: in vivo, green foxtail (Setaria viridis)
Outline: as §4

| Structure (SMILES) | herbicidal effect grade, G: green foxtail |
| --- | --- |
| CC(=O)c1ccc(-c2sc3ccccc3c2-c2c(O)c(C)nn(C)c2=O)cc1 [1-041] | 1 (Herbicidal rate of 5% or more and less than 20%) |
| CCCC(=O)Oc1c(C)nn(C)c(=O)c1-c1c(-c2ccc(C(C)=NOC)cc2)sc2ccccc12 [1-044] | 5 (Herbicidal rate of 90% or more (almost completely withered)) |
| Cc1cc(-c2sc3ccccc3c2-c2c(O)c(C)nn(C)c2=O)ccc1F [1-051] | 5 (Herbicidal rate of 90% or more (almost completely withered)) |

Each compound was assayed on barnyard grass (assay: Test Example 5: herbicidal effect by foliage application, plastic box (Table 20, symbol H)). Details: foliage application, 320 g/ha, three weeks after application.
Format: in vivo, barnyard grass (Echinochloa crus-galli)
Outline: as §4

| Structure (SMILES) | herbicidal effect grade, H: barnyard grass |
| --- | --- |
| CC(=O)c1ccc(-c2sc3ccccc3c2-c2c(O)c(C)nn(C)c2=O)cc1 [1-041] | 0 (Herbicidal rate of 5% or less (almost no effect)) |
| CCCC(=O)Oc1c(C)nn(C)c(=O)c1-c1c(-c2ccc(C(C)=NOC)cc2)sc2ccccc12 [1-044] | 3 (Herbicidal rate of 40% or more and less than 70%) |
| Cc1cc(-c2sc3ccccc3c2-c2c(O)c(C)nn(C)c2=O)ccc1F [1-051] | 3 (Herbicidal rate of 40% or more and less than 70%) |

Each compound was assayed on wild oat (assay: Test Example 5: herbicidal effect by foliage application, plastic box (Table 20, symbol I)). Details: foliage application, 320 g/ha, three weeks after application.
Format: in vivo, wild oat (Avena fatua)
Outline: as §4

| Structure (SMILES) | herbicidal effect grade, I: wild oat |
| --- | --- |
| CC(=O)c1ccc(-c2sc3ccccc3c2-c2c(O)c(C)nn(C)c2=O)cc1 [1-041] | 1 (Herbicidal rate of 5% or more and less than 20%) |
| CCCC(=O)Oc1c(C)nn(C)c(=O)c1-c1c(-c2ccc(C(C)=NOC)cc2)sc2ccccc12 [1-044] | 4 (Herbicidal rate of 70% or more and less than 90%) |
| Cc1cc(-c2sc3ccccc3c2-c2c(O)c(C)nn(C)c2=O)ccc1F [1-051] | 3 (Herbicidal rate of 40% or more and less than 70%) |

The compounds below were run on windgrass (assay: Test Example 5: herbicidal effect by foliage application, plastic box (Table 20, symbol L)). Details: foliage application, 320 g/ha, three weeks after application.
Format: in vivo, windgrass (Apera spica-venti)
Outline: as §4

| Structure (SMILES) | herbicidal effect grade, L: windgrass |
| --- | --- |
| CC(=O)c1ccc(-c2sc3ccccc3c2-c2c(O)c(C)nn(C)c2=O)cc1 [1-041] | 4 (Herbicidal rate of 70% or more and less than 90%) |
| CCCC(=O)Oc1c(C)nn(C)c(=O)c1-c1c(-c2ccc(C(C)=NOC)cc2)sc2ccccc12 [1-044] | 3 (Herbicidal rate of 40% or more and less than 70%) |
| Cc1cc(-c2sc3ccccc3c2-c2c(O)c(C)nn(C)c2=O)ccc1F [1-051] | 4 (Herbicidal rate of 70% or more and less than 90%) |

These compounds were tested on chickweed (assay: Test Example 5: herbicidal effect by foliage application, plastic box (Table 20, symbol P)). Details: foliage application, 320 g/ha, three weeks after application.
Format: in vivo, common chickweed (Stellaria media)
Outline: as §4

| Structure (SMILES) | herbicidal effect grade, P: chickweed |
| --- | --- |
| CC(=O)c1ccc(-c2sc3ccccc3c2-c2c(O)c(C)nn(C)c2=O)cc1 [1-041] | 5 (Herbicidal rate of 90% or more (almost completely withered)) |
| CCCC(=O)Oc1c(C)nn(C)c(=O)c1-c1c(-c2ccc(C(C)=NOC)cc2)sc2ccccc12 [1-044] | 5 (Herbicidal rate of 90% or more (almost completely withered)) |
| Cc1cc(-c2sc3ccccc3c2-c2c(O)c(C)nn(C)c2=O)ccc1F [1-051] | 5 (Herbicidal rate of 90% or more (almost completely withered)) |

What follows are compounds tested on persian speedwell (assay: Test Example 5: herbicidal effect by foliage application, plastic box (Table 20, symbol R)). Details: foliage application, 320 g/ha, three weeks after application.
Format: in vivo, Persian speedwell (Veronica persica)
Outline: as §4

| Structure (SMILES) | herbicidal effect grade, R: persian speedwell |
| --- | --- |
| CC(=O)c1ccc(-c2sc3ccccc3c2-c2c(O)c(C)nn(C)c2=O)cc1 [1-041] | 5 (Herbicidal rate of 90% or more (almost completely withered)) |
| CCCC(=O)Oc1c(C)nn(C)c(=O)c1-c1c(-c2ccc(C(C)=NOC)cc2)sc2ccccc12 [1-044] | 5 (Herbicidal rate of 90% or more (almost completely withered)) |
| Cc1cc(-c2sc3ccccc3c2-c2c(O)c(C)nn(C)c2=O)ccc1F [1-051] | 5 (Herbicidal rate of 90% or more (almost completely withered)) |
